Values joined by “and” are separate entries in the source; they are usually repeats but may differ in a detail not shown here. Equal entries are not always repeated.
Columns and labels:
Assay in all cases: URAT1 uric acid transport activity assay
[1] = molecular target: T1, h-r TM1 chimera (rURAT1 residues 1–99 and hURAT residues 100–553) (UniProt Q3ZAV1+Q96S37); type: cell-based, human/rat
T1 construct: a chimera consisting of rURAT1 residues 1–99 and hURAT residues 100–553 (h-r TM1); expressed in transfected cells; host or cells: HEK-293T
T1 sequence (Q3ZAV1 1-99, change not shown): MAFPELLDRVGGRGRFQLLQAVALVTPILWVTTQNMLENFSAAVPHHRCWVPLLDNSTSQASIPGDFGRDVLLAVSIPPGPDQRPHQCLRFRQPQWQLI
T1 sequence (Q96S37 100-553, change not shown): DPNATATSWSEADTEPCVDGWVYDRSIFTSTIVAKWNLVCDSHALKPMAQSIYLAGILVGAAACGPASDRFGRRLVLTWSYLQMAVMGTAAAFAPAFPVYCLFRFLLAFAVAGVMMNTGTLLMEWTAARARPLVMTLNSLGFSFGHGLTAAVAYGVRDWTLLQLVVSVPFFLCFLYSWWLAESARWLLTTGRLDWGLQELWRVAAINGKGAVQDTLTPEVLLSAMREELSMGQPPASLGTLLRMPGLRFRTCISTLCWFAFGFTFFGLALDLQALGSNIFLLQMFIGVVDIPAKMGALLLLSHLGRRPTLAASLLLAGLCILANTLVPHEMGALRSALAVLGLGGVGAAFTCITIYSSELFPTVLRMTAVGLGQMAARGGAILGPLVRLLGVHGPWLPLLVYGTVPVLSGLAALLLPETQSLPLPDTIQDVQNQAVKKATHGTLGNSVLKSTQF

[2] = molecular target: T2, h-r TM10 URAT1 chimera (Homo sapiens, UniProt Q96S37, G444S/I452V/V445L/Y455F); type: cell-based, human/rat; settings: HEPES pH 7.3, 100 μM 14C-uric acid
T2 construct: expressed in transfected cells; host or cells: HEK-293T
T2 sequence (Q96S37 whole entry G444S/V445L/I452V/Y455F): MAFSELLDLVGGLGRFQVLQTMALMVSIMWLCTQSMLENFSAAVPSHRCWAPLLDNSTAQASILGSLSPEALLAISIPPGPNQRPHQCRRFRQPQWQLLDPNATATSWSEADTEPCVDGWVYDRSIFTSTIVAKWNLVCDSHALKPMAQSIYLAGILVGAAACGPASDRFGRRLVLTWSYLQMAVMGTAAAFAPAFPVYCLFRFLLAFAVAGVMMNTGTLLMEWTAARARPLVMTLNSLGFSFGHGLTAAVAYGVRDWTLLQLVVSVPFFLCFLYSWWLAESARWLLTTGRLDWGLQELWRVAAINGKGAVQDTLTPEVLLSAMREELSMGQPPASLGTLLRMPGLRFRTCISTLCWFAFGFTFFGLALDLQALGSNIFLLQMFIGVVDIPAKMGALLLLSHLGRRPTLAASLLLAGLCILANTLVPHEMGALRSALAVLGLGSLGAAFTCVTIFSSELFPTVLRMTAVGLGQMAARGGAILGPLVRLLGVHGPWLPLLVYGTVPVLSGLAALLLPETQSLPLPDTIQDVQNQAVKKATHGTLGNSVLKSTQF

[3] = molecular target: T3, h-r TM11 URAT1 chimera (Homo sapiens, UniProt Q96S37, I481M/M474V); type: cell-based, human/rat
T3 construct: expressed in transfected cells; host or cells: HEK-293T
T3 sequence (Q96S37 whole entry M474V/I481M): as the sequence (Q96S37 whole entry G444S/V445L/I452V/Y455F) above, with S444G, L445V, V452I, F455Y, M474V, I481M counted along it

[4] = molecular target: T4, h-r TM5-C URAT1 chimera (Homo sapiens, UniProt Q96S37, A249G/A250S/G246V/H245Q); type: cell-based, human/rat; settings: HEPES pH 7.3, 100 μM 14C-uric acid
T4 construct: expressed in transfected cells; host or cells: HEK-293T
T4 sequence (Q96S37 whole entry H245Q/G246V/A249G/A250S): as the sequence (Q96S37 whole entry G444S/V445L/I452V/Y455F) above, with H245Q, G246V, A249G, A250S, S444G, L445V, V452I, F455Y counted along it

[5] = molecular target: T5, h-r TM5-N URAT1 chimera (Homo sapiens, UniProt Q96S37, S238A/V233M); type: cell-based, human/rat; settings: HEPES pH 7.3, 100 μM 14C-uric acid
T5 construct: expressed in transfected cells; host or cells: HEK-293T
T5 sequence (Q96S37 whole entry V233M/S238A): as the sequence (Q96S37 whole entry G444S/V445L/I452V/Y455F) above, with V233M, S238A, S444G, L445V, V452I, F455Y counted along it
Outline: (§1)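 Readout: 14C-uric acid uptake (100 μM, 10 min) in cells transiently transfected one day earlier with mutant rURAT1. Serially diluted inhibitors were added 5 min before substrate. Triplicate points, four-parameter logistic fit for IC50.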

[6] = molecular target: T6, h-r TM7 URAT1 chimera (Homo sapiens, UniProt Q96S37, C351F/F365Y/T354M); type: cell-based, human/rat
T6 construct: expressed in transfected cells; host or cells: HEK-293T
T6 sequence (Q96S37 whole entry C351F/T354M/F365Y): as the sequence (Q96S37 whole entry G444S/V445L/I452V/Y455F) above, with C351F, T354M, F365Y, S444G, L445V, V452I, F455Y counted along it

[7] = molecular target: T7, h-r TM8 URAT1 chimera (Homo sapiens, UniProt Q96S37, A392V/A396S/F384L/H402R/I390L/M383A/P407L/V387I); type: cell-based, human/rat; settings: HEPES pH 7.3, 100 μM 14C-uric acid
T7 construct: expressed in transfected cells; host or cells: HEK-293T
T7 sequence (Q96S37 whole entry M383A/F384L/V387I/I390L/A392V/A396S/H402R/P407L): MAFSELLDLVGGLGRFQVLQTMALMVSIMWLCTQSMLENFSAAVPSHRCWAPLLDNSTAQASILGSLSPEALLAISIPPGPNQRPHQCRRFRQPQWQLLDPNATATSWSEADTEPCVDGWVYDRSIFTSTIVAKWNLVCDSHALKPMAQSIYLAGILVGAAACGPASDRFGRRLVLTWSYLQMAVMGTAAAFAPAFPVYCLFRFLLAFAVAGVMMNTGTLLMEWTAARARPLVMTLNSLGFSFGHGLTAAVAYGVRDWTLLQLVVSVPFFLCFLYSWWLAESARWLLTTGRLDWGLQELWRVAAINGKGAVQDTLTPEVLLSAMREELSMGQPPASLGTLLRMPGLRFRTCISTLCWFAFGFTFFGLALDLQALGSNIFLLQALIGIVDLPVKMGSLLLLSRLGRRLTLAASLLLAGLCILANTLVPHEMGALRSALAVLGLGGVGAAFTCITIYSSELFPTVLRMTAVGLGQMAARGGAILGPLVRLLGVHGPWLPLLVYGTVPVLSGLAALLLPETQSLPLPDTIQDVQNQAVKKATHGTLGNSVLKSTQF

[8] = molecular target: T8, h-r TM9-C URAT1 chimera (Homo sapiens, UniProt Q96S37, A432I/A436S/H428R/T424I); type: cell-based, human/rat; settings: HEPES pH 7.3, 100 μM 14C-uric acid
T8 construct: expressed in transfected cells; host or cells: HEK-293T
T8 sequence (Q96S37 whole entry T424I/H428R/A432I/A436S): as the sequence (Q96S37 whole entry G444S/V445L/I452V/Y455F) above, with T424I, H428R, A432I, A436S, S444G, L445V, V452I, F455Y counted along it

[9] = molecular target: T9, r-h TM1 chimera (hURAT1 residues 1–99 and rURAT1 residues 100–553) (UniProt Q3ZAV1+Q96S37); type: cell-based, human/rat; settings: HEPES pH 7.3, 100 μM 14C-uric acid
T9 construct: The chimera r-hTM1, consisting of hURAT1 residues 1–99 and rURAT1 residues 100–553; expressed in transfected cells; host or cells: HEK-293T
T9 sequence (Q96S37 1-99, change not shown): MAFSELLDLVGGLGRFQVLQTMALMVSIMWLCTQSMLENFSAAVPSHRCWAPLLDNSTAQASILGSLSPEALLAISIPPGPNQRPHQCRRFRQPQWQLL
T9 sequence (Q3ZAV1 100-553, change not shown): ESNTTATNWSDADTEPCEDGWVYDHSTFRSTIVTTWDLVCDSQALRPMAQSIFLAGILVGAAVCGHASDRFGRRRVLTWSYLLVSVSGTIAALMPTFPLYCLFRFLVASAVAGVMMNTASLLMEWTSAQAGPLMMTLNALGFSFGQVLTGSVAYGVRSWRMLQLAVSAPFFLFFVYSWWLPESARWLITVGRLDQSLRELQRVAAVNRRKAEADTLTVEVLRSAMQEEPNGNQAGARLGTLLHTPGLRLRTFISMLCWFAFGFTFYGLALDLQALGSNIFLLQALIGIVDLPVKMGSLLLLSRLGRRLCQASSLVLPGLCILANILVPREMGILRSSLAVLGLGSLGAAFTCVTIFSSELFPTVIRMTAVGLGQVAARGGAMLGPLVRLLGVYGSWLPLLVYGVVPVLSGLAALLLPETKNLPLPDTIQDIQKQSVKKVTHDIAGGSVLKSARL
Outline: as §1

[10] = molecular target: T10, h-C32T hURAT1 point mutant (Homo sapiens, UniProt Q96S37, C32T); type: cell-based; settings: HEPES pH 7.3, 100 μM 14C-uric acid
T10 construct: expressed in transfected cells; host or cells: HEK-293T
T10 sequence (Q96S37 whole entry C32T): as the sequence (Q96S37 whole entry G444S/V445L/I452V/Y455F) above, with C32T, S444G, L445V, V452I, F455Y counted along it

[11] = molecular target: T11, h-C351F/T354M hURAT1 double point mutant (Homo sapiens, UniProt Q96S37, C351F/T354M); type: cell-based; settings: HEPES pH 7.3, 100 μM 14C-uric acid
T11 construct: expressed in transfected cells; host or cells: HEK-293T
T11 sequence (Q96S37 whole entry C351F/T354M): as the sequence (Q96S37 whole entry G444S/V445L/I452V/Y455F) above, with C351F, T354M, S444G, L445V, V452I, F455Y counted along it
Outline: as §1

[12] = molecular target: T12, h-I481M hURAT1 point mutant (Homo sapiens, UniProt Q96S37, I481M); type: cell-based
T12 construct: expressed in transfected cells; host or cells: HEK-293T
T12 sequence (Q96S37 whole entry I481M): as the sequence (Q96S37 whole entry G444S/V445L/I452V/Y455F) above, with S444G, L445V, V452I, F455Y, I481M counted along it

[13] = molecular target: T13, h-M22V hURAT1 point mutant (Homo sapiens, UniProt Q96S37, M22V); type: cell-based; settings: HEPES pH 7.3, 100 μM 14C-uric acid
T13 construct: expressed in transfected cells; host or cells: HEK-293T
T13 sequence (Q96S37 whole entry M22V): as the sequence (Q96S37 whole entry G444S/V445L/I452V/Y455F) above, with M22V, S444G, L445V, V452I, F455Y counted along it

[14] = molecular target: T14, h-M25V hURAT1 point mutant (Homo sapiens, UniProt Q96S37, M25V); type: cell-based
T14 construct: expressed in transfected cells; host or cells: HEK-293T
T14 sequence (Q96S37 whole entry M25V): as the sequence (Q96S37 whole entry G444S/V445L/I452V/Y455F) above, with M25V, S444G, L445V, V452I, F455Y counted along it

[15] = molecular target: T15, h-M29L hURAT1 point mutant (Homo sapiens, UniProt Q96S37, M29L); type: cell-based; settings: HEPES pH 7.3, 100 μM 14C-uric acid
T15 construct: expressed in transfected cells; host or cells: HEK-293T
T15 sequence (Q96S37 whole entry M29L): as the sequence (Q96S37 whole entry G444S/V445L/I452V/Y455F) above, with M29L, S444G, L445V, V452I, F455Y counted along it

[16] = molecular target: T16, h-M474V hURAT1 point mutant (Homo sapiens, UniProt Q96S37, M474V); type: cell-based; settings: HEPES pH 7.3, 100 μM 14C-uric acid
T16 construct: expressed in transfected cells; host or cells: HEK-293T
T16 sequence (Q96S37 whole entry M474V): as the sequence (Q96S37 whole entry G444S/V445L/I452V/Y455F) above, with S444G, L445V, V452I, F455Y, M474V counted along it

[17] = molecular target: T17, h-S27P hURAT1 point mutant (Homo sapiens, UniProt Q96S37, S27P); type: cell-based; settings: HEPES pH 7.3, 100 μM 14C-uric acid
T17 construct: expressed in transfected cells; host or cells: HEK-293T
T17 sequence (Q96S37 whole entry S27P): as the sequence (Q96S37 whole entry G444S/V445L/I452V/Y455F) above, with S27P, S444G, L445V, V452I, F455Y counted along it

[18] = molecular target: T18, h-T21A hURAT1 point mutant (Homo sapiens, UniProt Q96S37, T21A); type: cell-based; settings: HEPES pH 7.3, 100 μM 14C-uric acid
T18 construct: expressed in transfected cells; host or cells: HEK-293T
T18 sequence (Q96S37 whole entry T21A): as the sequence (Q96S37 whole entry G444S/V445L/I452V/Y455F) above, with T21A, S444G, L445V, V452I, F455Y counted along it

[19] = molecular target: T19, h-V18L hURAT1 point mutant (Homo sapiens, UniProt Q96S37, V18L); type: cell-based; settings: HEPES pH 7.3, 100 μM 14C-uric acid
T19 construct: expressed in transfected cells; host or cells: HEK-293T
T19 sequence (Q96S37 whole entry V18L): as the sequence (Q96S37 whole entry G444S/V445L/I452V/Y455F) above, with V18L, S444G, L445V, V452I, F455Y counted along it

[20] = molecular target: T20, h-V26T hURAT1 point mutant (Homo sapiens, UniProt Q96S37, V26T); type: cell-based; settings: HEPES pH 7.3, 100 μM 14C-uric acid
T20 construct: expressed in transfected cells; host or cells: HEK-293T
T20 sequence (Q96S37 whole entry V26T): as the sequence (Q96S37 whole entry G444S/V445L/I452V/Y455F) above, with V26T, S444G, L445V, V452I, F455Y counted along it

[21] = molecular target: T21, hURAT1-S35N/F365Y double point mutant (Homo sapiens, UniProt Q96S37, F365Y/S35N); type: cell-based
T21 construct: hURAT1 and rURAT1 are 553 amino acid proteins with 12 transmembrane segments; expressed in transfected cells; host or cells: HEK-293T
T21 sequence (Q96S37 whole entry S35N/F365Y): as the sequence (Q96S37 whole entry G444S/V445L/I452V/Y455F) above, with S35N, F365Y, S444G, L445V, V452I, F455Y counted along it

Compound: O=C1C(CC[S+]([O-])c2ccccc2)C(=O)N(c2ccccc2)N1c1ccccc1 (stereo not drawn) [sulfinpyrazone]
- fold reduced affinity of h-r TM1 compared to hURAT1 ([1]; from IC50 values): 3 fold
- IC50 ([1]; h-r TM1, HEPES pH 7.3, 100 μM 14C-uric acid): 93 ± 17 µM
- IC50 [2]: 49 ± 11 µM
- fold reduced affinity of h-r TM11 compared to hURAT1 ([3]; from IC50 values): 3 fold
- IC50 ([3]; h-r TM11, HEPES pH 7.3, 100 μM 14C-uric acid): 100 ± 15 µM
- IC50 [4]: 34 ± 4 µM
- IC50 [5]: 37 ± 9 µM
- fold reduced affinity of h-r TM7 compared to hURAT1 ([6]; from IC50 values): 8 fold
- IC50 ([6]; h-r TM7, HEPES pH 7.3, 100 μM 14C-uric acid): 254 ± 47 µM
- IC50 [7]: 29 ± 13 µM
- IC50 [8]: 38 ± 11 µM
- IC50 [9]: 87 ± 25 µM
- IC50 [10]: 29 ± 3.2 µM
- IC50 [11]: 60 ± 5.9 µM
- fold reduced affinity of h-I481M compared to hURAT1 ([12]; from IC50 values): 4 fold
- IC50 ([12]; h-I481M, HEPES pH 7.3, 100 μM 14C-uric acid): 118 ± 8.1 µM
- IC50 [13]: 28 ± 3.1 µM
- fold reduced affinity of h-M25V compared to hURAT1 ([14]; from IC50 values): 1.7 fold
- IC50 ([14]; h-M25V, HEPES pH 7.3, 100 μM 14C-uric acid): 53 ± 6 µM
- IC50 [15]: 8.5 µM and 9 µM
- IC50 [16]: 30 ± 3.4 µM
- IC50 [17]: 9.3 µM and 9 µM
- IC50 [18]: 12 ± 2.3 µM
- IC50 [19]: 19 ± 4.7 µM
- IC50 [20]: 21 ± 4.7 µM

Compound: O=c1[nH]c(=O)c2[nH]c(=O)[nH]c2[nH]1 [uric acid]
- fold decrease in affinity of h-S35N/F365Y relative to hURAT1 ([21]; from IC50 values): 3.9 fold
- IC50 ([21]; hURAT1-S35N/F365Y, MES pH 5.5, 100 μM 14C-uric acid): 960 µM

— paper PMC5054527, “Mechanism of high affinity inhibition of the human urate transporter URAT1” (Scientific Reports, 2016)
